Measured values: ChEMBL document CHEMBL5107989, “Design, synthesis and activity evaluation of isopropylsulfonyl-substituted 2,4- diarylaminopyrimidine derivatives as FAK inhibitors for the potential treatment of pancreatic cancer” (Eur J Med Chem, 2022)

Experiments:
[1] = tested on: ASPC1; assay: cells; conditions: Homo sapiens, ASPC1, 72 h
Description: Antiproliferative activity against human ASPC1 cells harboring KRAS,TP53,CDKN2A and DPC4/SMAD4 mutations assessed as inhibition of cell growth incubated for 72 hrs by CCK-8 assay

[2] = tested on: NCI-H1975; assay: cells; conditions: Homo sapiens, NCI-H1975, 72 h
Description: Antiproliferative activity against gefitinib-resistant human NCI-H1975 cells assessed as inhibition of cell growth incubated for 72 hrs by CCK-8 assay

[3] = tested on: MIA PaCa-2; assay: cells; conditions: Homo sapiens, MIA PaCa-2, 72 h
Description: Antiproliferative activity against human MIA PaCa-2 cells harboring KRAS,TP53,CDKN2A and DPC4/SMAD4 mutations assessed as inhibition of cell growth incubated for 72 hrs by CCK-8 assay

[4] = tested on: Raji; assay: cells; conditions: Homo sapiens, 72 h
Description: Antiproliferative activity against human Raji cells assessed as inhibition of cell growth incubated for 72 hrs by CCK-8 assay

[5] = tested on: KM3/BTZ; assay: cells; conditions: Homo sapiens, 72 h
Description: Antiproliferative activity against bortezomib- resistant human KM3/BTZ cells assessed as inhibition of cell growth incubated for 72 hrs by CCK-8 assay

[6] = Cytotoxicity against human L02 cells assessed as inhibition of cell growth incubated for 72 hrs by CCK-8 assay; assay type: toxicity, cell-based
[7] = molecular target: Focal adhesion kinase 1 (Homo sapiens, UniProt Q05397); assay: Inhibition of recombinant human FAK (393 to 698 residues) using poly (4:1 Glu, Tyr) peptide as substrate incubated for 60 mins in presence of ATP by ADP-Glo reagent based luminescent assay
Sequence of Focal adhesion kinase 1 (Q05397 whole entry, the tested form may be a part): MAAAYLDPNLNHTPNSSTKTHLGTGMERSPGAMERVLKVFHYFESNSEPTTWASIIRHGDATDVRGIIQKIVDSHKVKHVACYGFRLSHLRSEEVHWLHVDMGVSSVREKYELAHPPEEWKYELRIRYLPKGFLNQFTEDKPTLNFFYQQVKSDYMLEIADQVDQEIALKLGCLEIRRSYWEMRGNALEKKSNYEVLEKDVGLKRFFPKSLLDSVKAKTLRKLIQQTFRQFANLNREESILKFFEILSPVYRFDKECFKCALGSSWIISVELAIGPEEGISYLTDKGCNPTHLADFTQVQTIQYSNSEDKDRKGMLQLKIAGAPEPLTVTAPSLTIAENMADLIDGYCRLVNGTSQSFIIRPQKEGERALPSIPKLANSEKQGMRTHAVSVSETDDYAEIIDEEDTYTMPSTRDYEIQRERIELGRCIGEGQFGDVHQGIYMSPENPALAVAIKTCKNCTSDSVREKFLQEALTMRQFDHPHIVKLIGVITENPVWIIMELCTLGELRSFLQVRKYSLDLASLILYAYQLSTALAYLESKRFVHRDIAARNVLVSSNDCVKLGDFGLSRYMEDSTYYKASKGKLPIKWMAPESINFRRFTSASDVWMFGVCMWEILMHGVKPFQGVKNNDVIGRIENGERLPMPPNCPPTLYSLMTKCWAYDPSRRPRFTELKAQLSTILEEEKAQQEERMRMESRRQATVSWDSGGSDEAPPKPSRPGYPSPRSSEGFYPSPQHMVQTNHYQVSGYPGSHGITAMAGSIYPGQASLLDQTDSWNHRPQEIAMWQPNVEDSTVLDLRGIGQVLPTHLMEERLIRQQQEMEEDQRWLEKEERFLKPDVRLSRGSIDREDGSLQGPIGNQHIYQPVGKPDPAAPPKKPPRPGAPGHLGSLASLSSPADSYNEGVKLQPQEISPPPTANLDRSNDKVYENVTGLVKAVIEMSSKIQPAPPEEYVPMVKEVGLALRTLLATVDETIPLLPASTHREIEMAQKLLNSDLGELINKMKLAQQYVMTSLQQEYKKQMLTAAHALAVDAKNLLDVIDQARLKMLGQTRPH

Row | Structure (SMILES) | IC50 [1] [nM] | IC50 [2] [nM] | IC50 [3] [nM] | IC50 [4] [nM] | IC50 [5] [nM] | IC50 at 72 h [6] [nM] | IC50 [7] [nM]
1 | CC(C)S(=O)(=O)c1ccccc1Nc1nc(Nc2ccc(OCC(=O)N3CCOCC3)cc2)ncc1Cl | 259 | 347 | 714 | 3270 | 1610 | 368 | 
2 | CC(C)S(=O)(=O)c1ccccc1Nc1nc(Nc2ccc(CN3CCC(C(=O)O)CC3)cc2)ncc1Cl | 472 | 2810 | 1130 | > 10000 | 1020 | 1270 | 
3 | CC(C)S(=O)(=O)c1ccccc1Nc1nc(Nc2ccc(N3CCC(C(=O)O)CC3)cc2)ncc1Cl | 916 | 2710 | 2120 | 1480 | 3680 | 1510 | 
4 | CC(C)S(=O)(=O)c1ccccc1Nc1nc(Nc2ccc(N3CCC(C(=O)NCCCCCC(=O)NO)CC3)cc2)ncc1Cl | 2380 | 4140 | 1170 | > 10000 | > 10000 | 755 | 
5 | CC(C)S(=O)(=O)c1ccccc1Nc1nc(Nc2ccc(CN3CCSCC3)cc2)ncc1Cl | 735 | 3510 | 452 | 2210 | 2490 | 1140 | 
6 | CC(C)S(=O)(=O)c1ccccc1Nc1nc(Nc2ccc(NC(=O)CN3CCC(C(=O)NCCCCCC(=O)NO)CC3)cc2)ncc1Cl | 3180 | > 10000 | 1230 | > 10000 | > 10000 | 5050 | 
7 | CCC(C)C(CO)NC(=O)C1CCN(Cc2ccc(Nc3ncc(Cl)c(Nc4ccccc4S(=O)(=O)C(C)C)n3)cc2)CC1 (stereo not given) | 394 | 8200 | 1900 | > 10000 | 2580 | 1390 | 
8 | CNC(=O)c1ccccc1Nc1nc(Nc2ccc(N3CCOCC3)cc2OC)ncc1Cl | 4820 | > 10000 | 5230 | > 10000 | 4390 | 5210 | 
9 | CC(C)S(=O)(=O)c1ccccc1Nc1nc(Nc2ccc(NC(=O)CN3CCC(C(=O)O)CC3)cc2)ncc1Cl | 3680 | 7510 | 5050 | 3250 | 2160 | 2320 | 
10 | CC(C)S(=O)(=O)c1ccccc1Nc1nc(Nc2ccc(CN3CCC(C(=O)NCCCCCC(=O)NO)CC3)cc2)ncc1Cl | 6980 | 7860 | 1230 | > 10000 | 2890 | 2990 | 
11 | CCOC(=O)C1CCN(CC(=O)Nc2ccc(Nc3ncc(Cl)c(Nc4ccccc4S(=O)(=O)C(C)C)n3)cc2)CC1 | 989 | 2920 | 5270 | 1320 | 2320 | 1220 | 
12 | CCOC(=O)C1CCN(c2ccc(Nc3ncc(Cl)c(Nc4ccccc4S(=O)(=O)C(C)C)n3)cc2)CC1 | 451 | 9640 | 12.6 | > 10000 | > 10000 | 980 | 
13 | COC(=O)CCCCCNC(=O)C1CCN(CC(=O)Nc2ccc(Nc3ncc(Cl)c(Nc4ccccc4S(=O)(=O)C(C)C)n3)cc2)CC1 | 5940 | 3820 | 1230 | > 10000 | > 10000 | 7010 | 
14 | CCOP(=O)(Cc1ccc(Nc2ncc(Cl)c(Nc3ccccc3S(=O)(=O)C(C)C)n2)cc1)OCC | 2980 | 2950 | 4710 | 1670 | > 10000 | 7930 | 0.315
15 | COC(=O)CCCCCNC(=O)C1CCN(c2ccc(Nc3ncc(Cl)c(Nc4ccccc4S(=O)(=O)C(C)C)n3)cc2)CC1 | 1920 | 7420 | 622 | > 10000 | 9770 | 1980 | 
16 | CC(C)S(=O)(=O)c1ccccc1Nc1nc(Nc2ccc(SCCCN3CCOCC3)cc2)ncc1Cl | 3520 | 2880 | 4760 | > 10000 | > 10000 | 8650 | 
17 | CCOC(=O)C1CCN(Cc2ccc(Nc3ncc(Cl)c(Nc4ccccc4S(=O)(=O)C(C)C)n3)cc2)CC1 | 295 | 2080 | 7090 | 2960 | 262 | 453 | 
18 | CC(C)S(=O)(=O)c1ccccc1Nc1nc(Nc2ccc(CN3CCC(CO)CC3)cc2)ncc1Cl | 139 | 6290 | 235 | 1220 | 159 | 192 | 
19 | CC(C)S(=O)(=O)c1ccccc1Nc1nc(Nc2ccc(CN3CCC(C(=O)NCCO)CC3)cc2)ncc1Cl | 288 | 494 | 459 | > 10000 | 497 | 978 | 
